One series deals with mouse. Nature of the series: acid writhing pain test in the mouse (acetic acid test). The format is in vivo. To be noted: po, per os, 50% inhibition of writhing syndrome, read-out: analgesically active ED50. The text has this:
Acetic acid test (writhing test) in the mouse Method: In the acetic acid test after KOSTER et al. (Fed. Proc., Vol. 18, page 412 (1959)) the pain stimulus triggered by an intraperitoneal injection of 1% acetic acid. The pain reaction is expressed in the form of the characteristic stretching of the animals ("writhing syndrome") which continues at irregular time intervals form some time after injection of the acetic acid. The dose-dependent inhibition of the frequency of the stretching movement as compared to an untreated control group is expressed in percent as analgesic activity. Evaluation is by determination type the ED50 (Method of linear regression). The ED50 is the dose in mg/kg at which there is a 50% inhibition of the "writhing syndrome".
A general note: In writhing tests, fewer writhes than in controls are read as antinociception.

In series [1] the test system is rat. Nature of the series: Randall-Selitto inflammatory pain test in the rat. The format is in vivo. The note with it: po, per os; for ED50: 0.5 h, Randall-Selitto test, rat, 50% analgesic activity, read-out: analgesically effective ED50. Here is the method: Randall-Selitto test (inflammatory pain in the rat)
By analogy with the method according to RANDALL and SELITTO (L. O. Randall and J. Selitto, Arch. int. Pharmacodyn. Vol. 111, pages 409-418 (1957)), rats receive subplantar injections of 0.1 ml of a 20% (in demineralized water) brewer's yeast suspension into the right back paw. 2 1/2 hours thereafter the test substances are administered and 30 minutes thereafter the pain threshold (in grams) is measured as pain in the inflamed paw, using a commercially available algesia meter. The criterion is the defense reaction shown by the animals in pulling the paw away and/or freeing themselves from the research worker's grip. The activity of the substance is measured in the form of the increase in the pain threshold as compared to an untreated control group. The course of the experiment differs from that in the original method in that the substances are only given 21/2 hours after provocation of the edema and not simultaneously therewith. In so doing the intention is to prevent the development of the edema being inhibited by a possible anti-inflammatory activity and masking or feigning analgesia.
The ED50 is determined using the linear regression method. The ED50 here is the dose in mg/kg it which mathematically there is a 50% analgesic activity.

For series [2], the system named is rat. Description: carragheen-induced oedema test in the rat. The format is in vivo. To be noted: for ED50: 50% inhibition of paw oedema, read-out: anti-inflammatorily active ED50. Here is the method:
Caragheen-induced edema test for anti-inflammatory activity:
The investigation is conducted in carragheen-induced edema of the rat paw after the method of MOERSDORF and co-workers (Arch.int.Pharmacodyn. 192, 111-127 (1971)). The anti-inflammatory activity is, for example, given as inhibition of edema in percent as compared to the untreated control group. Application is oral or intraperitoneal in all experiments. The substance is administered orally or intraperitoneally 1 hour after triggering the inflammation. The ED50 is the dose in mg/kg at which there is 50% inhibition of the paw oedema.

For series [3], the system named is human immunodeficiency virus HIV (HIV-1, HIV-2). Nature of the series: growth-inhibiting activity against retroviruses, in particular HIV (HIV-1, HIV-2). To be noted: in vitro; in words. The format is cell-based. The text has this:
3. Determination of reverse transcriptase in culture supernatant
4. Determination of p24 antigen in culture supernatant
In the case of the in vitro experiments the active ingredient is used, for example in benzyl alcohol as solvent.
The following substrates may, for example, be used for the in vitro investigations of the replication behavior of retroviruses, in particular HIV:
1. Virus-containing RPMI 1640 medium, for example 1X liquid 041-01875 (synthetic culture medium from Gibeo according to Moore, Gerner and Franklin, H. A. (1967), J.A.M.A. 199; 519) in a concentration of 2×10^3 -1×10^4 infectious units (PFU)/ml
2. The cell lines Jurkat Clone E6-1, Sup T1 and HeLa CT4.

Series [4] is described as follows: acute toxicity in the mouse (method of LITCHFIELD and WILCOXON). To be noted: in vivo, oral administration. Here is the method: The acute toxicity of R-α-lipoic acid and S-α-lipoic acid in the mouse (expressed as the LD50 mg/kg; method of LITCHFIELD and WILCOXON, J. Pharmacol. Exp Ther. 95, 99 (1949)), is for example in excess of 100 mg/kg in the case of oral administration.

The nature of series [5]: analgesic, anti-inflammatory, anti-arthrotic and cytoprotective activity in investigatory models. The format is in vivo, mouse, rat, chicken. The note with it: in words. The text has this: The optical isomers of α-lipoic acid display a good analgesic, anti-inflammatory, anti-arthrotic and cytoprotective activity in, for example, the following investigatory models:
MgSO4 writhing test in the mouse according to GYIRES et al. (Arch.int.pharmacodyn.therap. 267, 131-140 (1984))
Adjuvans arthritis in the rat according to NEWBOULD (Brit.J.Pharmacol. 21, 127-136 (1963))
TPA- or arachidonic acid-induced mouse ear oedema according to YOUNG et al. (J.Invest.Dermatol. 80, 48-52 (1983))
Na-mono-iodazetate-induced arthrosis in rats or chickens according to KALBHEN in: Arthrosis deformans, Eular-Verlag, Basel/Switzerland, 1982
TPA-induced arthrosis in rats according to WEISCHER (Agents and Actions 23, 1/2 (1988))
Intestinal ulcerations in rats according to DEL SOLDATO (Agents and Actions 16, 393-396 (1985))
Colitis-model in the rat according to WEISCHER at al (Agents and Actions, vol. 26, 1/2, page 222 to 223, (1989))
Ethanol-ulcer model in the rat (determination for example of a cytoprotective activity).

A short description of series [6]: analgesic and anti-inflammatory activity compared with the racemate (general statement, no test named). The format is in vivo. To be noted: vs racemate.
The mark [7] stands for this setting: po, carragheen-induced oedema, rat, per os.

Three compounds from patent US6271254A, “Pharmaceutical compositions containing R-α-lipoic acid or S-α-lipoic acid as active ingredient” (ASTA Pharma Aktiengesellschaft, priority 1989, dated 2001) can be followed below.

The ED50 is the midpoint of the dose-response relation. Turning to `O=C(O)CCCCC1CCSS1` (racemic) [racemate, 1,2-dithiacyclopentane-3-valeric acid, reference compound], the 50% effective dose (ED50) in the series with mouse is 51.3 mg/kg; in the series with rat [1] it was 45.9 mg/kg; with rat [2] (setting [7]) it was 49.7 mg/kg.

Usually LD50 stands for the dose expected to kill half of the subjects tested. On to `O=C(O)CCCC[C@@H]1CCSS1` [R-α-lipoic acid], for which the “growth-inhibiting activity against retroviruses, in particular HIV (HIV-1, HIV-2)” value in series [3] is on record as “growth-inhibiting activity”. In addition, in series [4], the LD50 is above 100 mg/kg. Further, the “antinociceptive and cytoprotective activity (beside anti-inflammatory and anti-arthritic main activity)” value in series [5] was “to a lesser extent”. The “anti-inflammatory activity stronger than that of the racemate (factor)” value in series [6] is reported as 10 factor. The minimal effective dose in the series on rat [2] (Rattus norvegicus, po, carragheen-induced oedema test, per os, read-out: minimum anti-inflammatorily effective dose) was found to be 1 mg/kg. Further, the “anti-inflammatory activity superior to that of racemic α-lipoic acid (factor)” value with rat [2] (carragheen-induced oedema, rat, peroral application) is at least 10 factor. Besides, the ED50 in the series on rat [2] (setting [7]) worked out at 4.9 mg/kg.

Take `O=C(O)CCCC[C@H]1CCSS1` [S-α-lipoic acid]: the “growth-inhibiting activity against retroviruses, in particular HIV (HIV-1, HIV-2)” value in series [3] is “growth-inhibiting activity”. For the same compound, the figures for the ED50 with mouse and in the series with rat [1] were 10.2 mg/kg and 7.5 mg/kg, respectively. Besides, the LD50 in series [4] was above 100 mg/kg. In series [5], the “anti-inflammatory and cytoprotective activity (beside analgesic main activity)” value is recorded as “to a lesser extent”. Besides, the minimal effective dose in the series on rat [1] (Rattus norvegicus, Randall-Selitto pain test, read-out: minimum analgesically effective dose) is 1 mg/kg.
